In series [1] the test system is CMS1 (HCT116, RKO, LoVo, SNU-C2A, LIM2405, WiDr) and CMS2 (CaCo2, HT55, CL14, SW403, GP2d, HCA24) cell lines. The series is described as follows: Drug response curves (viability, AUC) in a panel of CMS1 and CMS2 cell lines. The series is classed as cell-based. Conditions: 72 h; 6 CMS1 and 6 CMS2 cell lines. An excerpt:
The present invention will now be further described in the following examples with reference to the accompanying figures and sequences, nevertheless, without being limited thereto. For the purposes of the present invention, all references as cited herein are incorporated by reference in their entireties. In the Figures: • Figure 1: Classification of colorectal cancer cell lines into consensus molecular subtypes (CMS). • (A) Workflow of data collection and subtype classification. Expression data of CRC cell lines were retrieved from six publicly available datasets. For each dataset, the CMS of every cancer cell line was separately identified using the R package 'CMSclassifier'. The CMS that was determined by the majority of datasets was then considered as the consensus. Finally, genomic data from CCLE and COSMIC were used to analyse CMS specific distributions of mutations and copy number alterations. • (B) Distribution of CRC cell lines to different CMS. […] Drug response data from a large screen performed by Iorio et al. was combined with the CMS classification of CRC cell lines to identify differential drug effects between CMS1 and CMS2 cell lines. […] Cell lines were treated with increasing drug concentrations for 72 h. […] The CMS1 cell lines RKO and HCT116 and the CMS2 cell lines HT55 and CaCo2 were treated with increasing concentrations of YM155. Induction of apoptosis was measured by FACS after staining with APC Annexin V and 7-AAD. […] Data are shown as mean value ± s.e.m. of 3-4 independent replicates. Cell lysates were additionally analyzed by PARP and CASP8 immunoblot. β-actin serves as a loading control. […] CMS1 and 2 cell lines were treated with increasing concentrations of the Bcl2 inhibitor navitoclax for 72 h. […] The CMS1 cells lines RKO and HCT116 were treated with different concentrations of YM155 for 48 h and the expression of survivin was measured by qPCR. […] (E) HCT116, RKO, HT55 and CaCo2 cells were treated with 10 nM of YM155 for 24 h, after which global expression was determined by microarray analysis. […]

The subject of series [2] is CMS1 and CMS2 CRC cell lines. The series is described as follows: Analysis of public drug screen data (Iorio et al.): viability effect (AUC) in CMS-classified CRC cell lines. The series is classed as cell-based. The settings on record: 8 CMS1 and 16 CMS2 CRC cell lines, 256 drugs, 2016. An excerpt:
The present invention will now be further described in the following examples with reference to the accompanying figures and sequences, nevertheless, without being limited thereto. For the purposes of the present invention, all references as cited herein are incorporated by reference in their entireties. In the Figures: • Figure 1: Classification of colorectal cancer cell lines into consensus molecular subtypes (CMS). • (A) Workflow of data collection and subtype classification. Expression data of CRC cell lines were retrieved from six publicly available datasets. For each dataset, the CMS of every cancer cell line was separately identified using the R package 'CMSclassifier'. The CMS that was determined by the majority of datasets was then considered as the consensus. […] Induction of apoptosis was measured by FACS after staining with APC Annexin V and 7-AAD. […] Cell lysates were additionally analyzed by PARP and CASP8 immunoblot. β-actin serves as a loading control. […] The CMS1 cells lines RKO and HCT116 were treated with different concentrations of YM155 for 48 h and the expression of survivin was measured by qPCR. […] (E) HCT116, RKO, HT55 and CaCo2 cells were treated with 10 nM of YM155 for 24 h, after which global expression was determined by microarray analysis. […]

The test system of series [3] is CMS1 cell lines HCT116 and RKO. The experiment in a line: Long-term proliferation assay. The settings on record: CMS1 (HCT116, RKO) versus CMS2. The series is classed as cell-based.
The test system of series [4] is CMS1 cell lines RKO and HCT116 and the CMS2 cell lines HT55 and CaCo2. The experiment in a line: Apoptosis by flow cytometry (APC Annexin V and 7-AAD). The format is cell-based. The settings on record: increasing concentrations; CMS1 (RKO, HCT116) versus CMS2 (HT55, CaCo2). An excerpt:
(§1) The present invention will now be further described in the following examples with reference to the accompanying figures and sequences, nevertheless, without being limited thereto. For the purposes of the present invention, all references as cited herein are incorporated by reference in their entireties. In the Figures: • Figure 1: Classification of colorectal cancer cell lines into consensus molecular subtypes (CMS). • (A) Workflow of data collection and subtype classification. Expression data of CRC cell lines were retrieved from six publicly available datasets. For each dataset, the CMS of every cancer cell line was separately identified using the R package 'CMSclassifier'. The CMS that was determined by the majority of datasets was then considered as the consensus. […] Heatmap showing the viability effect of YM155 on individual CMS1 and CMS2 cell lines within the screen (blue indicates a low viability as measured by the AUC). • (C-D) Validation of YM155 as a selective drug in CMS1 colorectal cancer. […] Induction of apoptosis was measured by FACS after staining with APC Annexin V and 7-AAD. […] Cell lysates were additionally analyzed by PARP and CASP8 immunoblot. β-actin serves as a loading control. […] The CMS1 cells lines RKO and HCT116 were treated with different concentrations of YM155 for 48 h and the expression of survivin was measured by qPCR. […]
Background: A flow cytometer gives signals particle by particle.

The subject of series [5] is PARP and CASP3. The series is described as follows: Immunoblot of PARP and caspase cleavage. The series is classed as cell-based. Conditions: cell lysates; CMS1 versus CMS2 cell lines.
In series [6] the test system is survivin. The experiment in a line: Survivin transcript (qPCR) and protein levels after treatment. The series is classed as cell-based. Conditions: four CRC cell lines.
Description: as §1
On the technique in general: Quantitative PCR measures a nucleic acid by following its amplification.

The subject of series [7] is HCT116, RKO, HT55 and CaCo2 cells. The series is described as follows: Global expression analysis by microarray after treatment. The series is classed as cell-based. The settings on record: 10 nM, 24 h; CMS1 versus CMS2 cell lines.
Description: as §1

Series [8] has as its system HCT116 and HT55. The experiment in a line: Single knockout validation (SLC35F2, CCDC22, WASHC4, SNX17): drug-induced apoptosis by FACS. The series is classed as cell-based.
Description: as §1

Series [9] concerns solid tumours. Conditions: phase I and II trials, solid non-CRC tumours; cited from earlier work.

Entries after “also recorded” stand apart in the source; their conditions may differ.

Turning to `O=c1[nH]cc(F)c(=O)[nH]1` [5-fluorouracil], the “sensitivity of CMS1 versus CMS2 cell lines (dose response curves, comparison of AUCs)” value in [1] is “do not show a different viability effect in CMS1 and CMS2 colorectal cancer; also recorded: no difference in response rates could be detected between CMS1 and CMS2”.
For `COCCn1c2c([n+](Cc3cnccn3)c1C)C(=O)c1ccccc1C2=O` [YM155, 11-(2-methoxyethyl)-2-methyl-4,9-dioxo-3-(pyrazin-2-ylmethyl)-4,9-dihydro-1H-naphtho(2,3-d)imidazolium bromide], the “differential effect between CMS1 and 2 (viability effect, AUC)” value in [2] is “selective effect on CMS1 cancer; also recorded: strongest differential effect between CMS1 and 2”. Also, in series [1], the “sensitivity of CMS1 versus CMS2 cell lines (dose response curves, comparison of AUCs)” value is given as “significantly higher vulnerability of CMS1 colorectal cancer; also recorded: significantly more sensitive”. For the same compound, in series [3], the “higher sensitivity of CMS1 cell lines” value is reported as “approximately 100 fold”. Also, the “induction of apoptosis (percentage of apoptotic cells)” value in series [4] is “Apoptosis can be measured at lower concentrations in CMS1 cell lines; also recorded: apoptosis was induced in CMS1 cell lines at significantly lower concentrations”. Further, in series [5], the “cleavage of PARP and CASP3” value is recorded as “detected at low concentrations in CMS1 but not CMS2 cell lines; also recorded: occurred at lower concentrations in RKO compared to CaCo2”. Besides, the “protein levels of survivin” value in series [6] is recorded as “protein levels of survivin are only reduced at high concentrations”. In addition, the “expression of survivin (transcript)” value in series [6] (qPCR, 48 h) is “expression of survivin is only repressed in RKO cells”. Besides, the global expression entry in series [7] is reported as “global expression was dynamically reshaped upon treatment in CMS1 cell lines”. Besides, the “effect of candidate gene knockout on drug-induced apoptosis” value in [8] (HCT116 (CMS1)) is “All candidate genes lead to resistance to YM155 induced apoptosis at different concentrations in HCT116; also recorded: resistance against YM155 induced apoptosis in HCT116”. Further, the “effect of candidate gene knockout on drug sensitivity” value in series [8] (HT55 (CMS2)) is given as “only SLC35F2 knockout mediates resistance in HT55; also recorded: did not change YM155 sensitivity in HT55”. In [9], the “clinical benefit / efficacy” value was “efficacy results are mixed; also recorded: failed to show clinical benefit; also recorded: no clinical benefit was observed”; the “tolerability / toxicity profile” value is “safe and good tolerability and favourable toxicity profile”.
For the compound `CC1(C)CCC(c2ccc(Cl)cc2)=C(CN2CCN(c3ccc(C(=O)NS(=O)(=O)c4ccc(N[C@H](CCN5CCOCC5)CSc5ccccc5)c(S(=O)(=O)C(F)(F)F)c4)cc3)CC2)C1` [navitoclax], the “sensitivity of CMS1 versus CMS2 cell lines (dose response curves, comparison of AUCs)” value in [1] is “does not show a significant difference between CMS1 and CMS2; also recorded: no difference in navitoclax sensitivity between CMS1 and CMS2 cell lines”.

The values are drawn from patent publication EP3590935A1, “FUSED IMIDAZOLIUM DERIVATIVES FOR USE IN THE TREATMENT OF COLORECTAL CANCER” (Deutsches Krebsforschungszentrum, Stiftung des öffentlichen …, priority 2018, dated 2020).
